Experimental data published in paper PMC7876056, “Population Pharmacokinetic Analysis of Yimitasvir in Chinese Healthy Volunteers and Patients With Chronic Hepatitis C Virus Infection” (Frontiers in Pharmacology, 2021).
Entries after “also recorded” stand apart in the source; their conditions may differ. Like-named read-outs stand apart in the source and are kept apart here.

How the values were obtained:
[1] = Phase 1b study in patients with chronic HCV genotype 1 infection; format: in vivo, human; settings: evening after dinner for more than 4 h
Experimental: Yimitasvir is a novel, oral HCV non-structural protein 5A (NS5A) inhibitor for the treatment of chronic HCV genotype 1 infection in combination with sofosbuvir. The pharmacokinetic profile of yimitasvir has been evaluated in healthy volunteers and patients with chronic HCV infection ([Zhang et al., 2018]; [Zhao et al., 2019]). Following fasted single oral dose of yimitasvir in healthy volunteers, yimitasvir was absorbed with a peak concentration (Cmax) 3.5–4.0 h post-dose. […] Yimitasvir was approximately 79.2–86.6% bound to human plasma proteins and the binding was independent of drug concentration over the range of 100–2000 ng ml^−1. No metabolism of yimitasvir was detected in vitro during incubations with hepatic microsomes from mice, rats, dogs, monkeys and humans. […] Steady state was achieved by day 5 following the once daily dosing regimen. […] Yimitasvir is a substrate and inhibitor of the drug transporter P-glycoprotein (P-gp).
The current population PK analysis of yimitasvir was performed using rich and sparse PK samples collected from six clinical pharmacology trials [4 phase 1 ([Zhao et al., 2019]), 1 phase 1b ([Zhang et al., 2018]) and 1 phase 2 studies] in Chinese healthy volunteers and HCV-infected patients. […]

[2] = system: chronic HCV genotype 1 infection; assay: Phase 2 study of yimitasvir with sofosbuvir in patients with chronic HCV infection; format: in vivo, human; settings: for Adverse reaction rate: with 400 mg sofosbuvir
Experimental: In phase 2 study, yimitasvir 100 or 200 mg was administered once daily for 12 weeks in combination with 400 mg sofosbuvir in patients with chronic HCV infection. […] The primary endpoint of phase 2 study was sustained virologic response [HCV RNA less than lower limit of quantification (LLOQ)] 12 (SVR12) weeks after the completion of treatment. SVR12 rates were achieved 100% in both 100 mg yimitasvir/400 mg sofobuvir and 200 mg yimitasvir/400 mg sofobuvir groups. […] The most common adverse reactions were neutropenia (3.9%), leukopenia (3.1%), hypercholesterolemia (3.1%) and fatigue (3.1%).
The current population PK analysis of yimitasvir was performed using rich and sparse PK samples collected from six clinical pharmacology trials [4 phase 1 ([Zhao et al., 2019]), 1 phase 1b ([Zhang et al., 2018]) and 1 phase 2 studies] in Chinese healthy volunteers and HCV-infected patients. Rich sampling entailed serial blood sampling at defined time points, and sparse sampling (single sample) only in phase 2 study entailed blood collection at every study visits. Patients with genotype 1 HCV infection were eligible, while patients with prior use of direct-acting antiviral agents (DAA) for HCV infection treatment were excluded in phase 1b and phase 2 studies.

human plasma proteins = settings: independent of drug concentration over 100–2000 ng ml^−1; cited from earlier work
[3] = mice; cited from earlier work
[4] = rats; cited from earlier work
[5] = dogs; cited from earlier work
[6] = monkeys; cited from earlier work
[7] = humans; cited from earlier work
P-glycoprotein (P-gp) = settings: cited from earlier work
[8] = system: cytochrome P450 (CYP) 2C8; settings: cited from earlier work
CYP 1A2 = settings: cited from earlier work
CYP 2C9 = settings: cited from earlier work
CYP 2C19 = settings: cited from earlier work
CYP 2D6 = settings: cited from earlier work
CYP 3A4 = settings: cited from earlier work
CYP3A4 = settings: cited from earlier work
[9] = cited from earlier work
[10] = 100 or 200 mg with 400 mg sofosbuvir

Question: For `COC(=O)NC(C(=O)N1CCCC1c1ncc(-c2ccc(-c3ccc(-c4ccc5nc(C6CCCN6C(=O)C(NC(=O)OC)C(C)C)[nH]c5c4)c4c3C3CCC4C3)cc2)[nH]1)C(C)C` (centres unmarked) [yimitasvir], which “AUC decrease compared to phase 1 SAD trial” value [1] is on record?
Answer: 40%

Question: And the Adverse reaction rate ([2]; 100 mg group)?
Answer: 35.9%

Question: What about the SVR12 rate ([2]; 100 mg yimitasvir/400 mg sofosbuvir once daily for 12 weeks) of the same molecule?
Answer: 100%

Question: And the Adverse reaction rate ([2]; 200 mg group)?
Answer: 36.9%

Question: And the SVR12 rate ([2]; 200 mg yimitasvir/400 mg sofosbuvir once daily for 12 weeks)?
Answer: 100%

Question: And the “Effect of co-medication of sofosbuvir on PK profile” value ([2]; 400 mg sofosbuvir)?
Answer: did not affect; also recorded: not affected by co-medication of sofosbuvir

Question: What about the “Adverse reaction: fatigue” value [2, 10] of the same molecule?
Answer: 3.1%

Question: What about the “Adverse reaction: hypercholesterolemia” value [2, 10] of the same molecule?
Answer: 3.1%

Question: And the “Adverse reaction: leukopenia” value [2, 10]?
Answer: 3.1%

Question: And the “Adverse reaction: neutropenia” value [2, 10]?
Answer: 3.9%

Question: What about the “Severity of adverse reactions” value ([2]; most common adverse reactions) of the same molecule?
Answer: grade 1 or 2; also recorded: grade one or two

Question: What about the “Dose proportionality of exposure” value ([2]; patients, 100 or 200 mg with 400 mg sofosbuvir) of the same molecule?
Answer: Less than dose proportionality

Question: And the “SVR12 rate (primary endpoint)” value ([2]; phase 2 study overall, taken at least 2 h before or after a meal in most patients)?
Answer: 100%

Question: And the “Bound to human plasma proteins” value (human plasma proteins)?
Answer: 79.2–86.6%

Question: What about the “Metabolism in hepatic microsomes” value [3] of the same molecule?
Answer: No metabolism

Question: And the “Metabolism in hepatic microsomes” value [4]?
Answer: No metabolism

Question: What about the “Metabolism in hepatic microsomes” value [5] of the same molecule?
Answer: No metabolism

Question: And the “Metabolism in hepatic microsomes” value [6]?
Answer: No metabolism

Question: What about the “Metabolism in hepatic microsomes” value [7] of the same molecule?
Answer: No metabolism

Question: What about the P-gp inhibition (P-glycoprotein (P-gp)) of the same molecule?
Answer: inhibitor

Question: And the P-gp substrate (P-glycoprotein (P-gp))?
Answer: substrate

Question: And the “Inhibition of CYP2C8” value [8]?
Answer: weak inhibitor

Question: What about the “Inhibition of CYP1A2” value (CYP 1A2) of the same molecule?
Answer: does not inhibit

Question: And the “Inhibition of CYP2C9” value (CYP 2C9)?
Answer: does not inhibit

Question: What about the “Inhibition of CYP2C19” value (CYP 2C19) of the same molecule?
Answer: does not inhibit

Question: What about the “Inhibition of CYP2D6” value (CYP 2D6) of the same molecule?
Answer: does not inhibit

Question: And the “Inhibition of CYP3A4” value (CYP 3A4)?
Answer: does not inhibit

Question: What about the “Induction of CYP3A4” value (CYP3A4) of the same molecule?
Answer: may be a weak inducer

Question: What about the Solubility profile [9] of the same molecule?
Answer: pH-dependent solubility profile
